Data taken from patent US9856216B2, “Compounds as TNIK, IKKε and TBK1 inhibitors and pharmaceutical composition comprising same” (GREEN CROSS CORPORATION, priority 2015, dated 2018).

molecular target: T1, TNIK (Homo sapiens, UniProt Q9UKE5); assay: ADP-Glo Kinase Assay, inhibition activity on TNIK; type: biochemical; details: not given
T1 construct: purchased Promega V4158
Protocol: The inhibition activities on TNIK, IKKε and TBK1 were measured by a luminometer, TNIK/IKKε/TBK1 Kinase Enzyme System (Promega, Ca# V4158; Invitrogen, PR8031B, Promega, Ca# V3991) and ADP-Glo Kinase Assay using ADP-Glo™ Kinase Analysis Kit (Promega, Ca# V9101) and a kinase reaction buffer [40 mM Tris(pH 7.5), 20 mM MgCl2, 0.1 mg/mL BSA] in accordance with the manufacturer's protocol.

T1 sequence (Q9UKE5 1-367 limits assumed): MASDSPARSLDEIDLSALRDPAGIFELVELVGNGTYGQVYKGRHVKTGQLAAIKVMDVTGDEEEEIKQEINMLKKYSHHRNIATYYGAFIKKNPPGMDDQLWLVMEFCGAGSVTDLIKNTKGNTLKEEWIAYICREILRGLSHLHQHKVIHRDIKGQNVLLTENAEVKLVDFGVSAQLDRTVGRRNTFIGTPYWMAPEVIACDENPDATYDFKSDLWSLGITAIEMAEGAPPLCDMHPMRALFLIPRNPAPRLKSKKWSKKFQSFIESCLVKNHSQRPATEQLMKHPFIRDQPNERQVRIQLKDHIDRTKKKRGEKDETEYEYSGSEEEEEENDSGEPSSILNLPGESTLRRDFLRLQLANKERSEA

Row | TNIK (μM) | Structure (SMILES)
1 | Insoluble | O=C(Nc1ccc(-c2cccc(O)c2O)c2c1C(=O)NC2)c1ccc(F)cc1 [Example 189, N-(7-(2,3-dihydroxyphenyl)-3-oxoisoindolin-4-yl)-4-fluorobenzamide]
2 | Insoluble | Cc1nc2cccc(-c3ccc(NC(=O)c4ccc(F)cc4)c4c3CNC4=O)c2o1 [Example 194, 4-Fluoro-N-(7-(2-methylbenzo[d]oxazol-7-yl)-3-oxoisoindolin-4-yl)benzamide]
3 | Insoluble | O=C(Nc1ccc(-c2ccc(F)nc2)c2c1C(=O)NC2)c1ccccc1 [Example 199, N-(7-(6-fluoropyridin-3-yl)-3-oxoisoindolin-4-yl)benzamide]
4 | Insoluble | COc1ccc(-c2ccc(NC(=O)c3ccccc3)c3c2CNC3=O)cn1 [Example 200, N-(7-(6-methoxypyridin-3-yl)-3-oxoisoindolin-4-yl)benzamide]

same assay, conditions: read-out: TNIK

Row | Structure (SMILES) | IC50 [nM]
5 | COc1ccc(OC)c(-c2ccc(NC(=O)c3ccccc3)c3c2CNC3=O)c1 [Example 178, N-(7-(2,5-dimethoxyphenyl)-3-oxoisoindolin-4-yl)benzamide] | > 20000
6 | CCOc1ccccc1-c1ccc(NC(=O)c2ccccc2)c2c1CNC2=O [Example 182, N-(7-(2-ethoxyphenyl)-3-oxoisoindolin-4-yl)benzamide] | 2800
7 | N#Cc1ccccc1-c1ccc(NC(=O)c2ccccc2)c2c1CNC2=O [Example 183, N-(7-(2-cyanophenyl)-3-oxoisoindolin-4-yl)benzamide] | 1700
8 | CCCCOc1ccc(-c2ccc(NC(=O)c3ccccc3)c3c2CNC3=O)cc1 [Example 184, N-(7-(4-butoxyphenyl)-3-oxoisoindolin-4-yl)benzamide] | > 20000
9 | CN(C)c1ccccc1-c1ccc(NC(=O)c2ccccc2)c2c1CNC2=O [Example 185, N-(7-(2-(dimethylamino)phenyl)-3-oxoisoindolin-4-yl) benzamide] | 2800
10 | O=C(Nc1ccc(-c2ccc(OC(F)(F)F)cc2)c2c1C(=O)NC2)c1ccccc1 [Example 186, N-(3-oxo-7-(4-(trifluoromethoxy)phenyl)isoindolin-4-yl) benzamide] | > 20000
11 | COc1cccc(OC)c1-c1ccc(NC(=O)c2ccccc2)c2c1CNC2=O [Example 187, N-(7-(2,6-dimethoxyphenyl)-3-oxoisoindolin-4-yl)benzamide] | 2200
12 | COc1cccc(-c2ccc(NC(=O)c3ccc(F)cc3)c3c2CNC3=O)c1O [Example 190, 4-Fluoro-N-(7-(2-hydroxy-3-methoxyphenyl)-3-oxoisoindolin-4-yl)benzamide] | 520
13 | O=C(Nc1ccc(-c2cccs2)c2c1C(=O)NC2)c1ccc(F)cc1 [Example 191, 4-Fluoro-N-(3-oxo-7-(thiophen-2-yl)isoindolin-4-yl)benzamide] | 13300
14 | O=C(Nc1ccc(-c2cccc3ncoc23)c2c1C(=O)NC2)c1ccc(F)cc1 [Example 193, N-(7-(benzo[d]oxazol-7-yl)-3-oxoisoindolin-4-yl)-4-fluorobenzamide] | 1450
15 | O=C(Nc1ccc(-c2ccc(CN3CCCC3)s2)c2c1C(=O)NC2)c1ccccc1 [Example 195, N-(3-oxo-7-(5-(pyrrolidin-1-ylmethyl)thiophen-2-yl)isoindolin-4-yl)benzamide] | > 20000
16 | O=C(Nc1ccc(-c2ccc(CN3CCCCC3)s2)c2c1C(=O)NC2)c1ccccc1 [Example 196, N-(3-oxo-7-(5-(piperidin-1-ylmethyl)thiophen-2-yl)isoindolin-4-yl)benzamide] | 17700
17 | O=C(Nc1ccc(-c2ccc(CN3CCOCC3)s2)c2c1C(=O)NC2)c1ccccc1 [Example 197, N-(7-(5-(morpholinomethyl)thiophen-2-yl)-3-oxoisoindolin-4-yl)benzamide] | > 20000
18 | CC(C)(C)OC(=O)N1CCN(Cc2ccc(-c3ccc(NC(=O)c4ccccc4)c4c3CNC4=O)s2)CC1 [Example 198, tert-Butyl 4-((5-(7-benzamido-1-oxoisoindolin-4-yl)thiophen-2-yl)methyl)piperazine-1-carboxylate] | > 20000
19 | COc1ccc(C(=O)Nc2ccc(-c3ccc(C(C)=O)cc3)c3c2C(=O)NC3)cc1 [Example 204, N-(7-(4-acetylphenyl)-3-oxoisoindolin-4-yl)-4-methoxy benzamide] | > 20000
20 | N#Cc1ccc(-c2ccc(NC(=O)c3ccccc3)c3c2CNC3=O)cc1 [Example 207, N-(7-(4-cyanophenyl)-3-oxoisoindolin-4-yl)benzamide] | > 20000
21 | O=C(Nc1ccc(-c2ccc(C(F)(F)F)cc2)c2c1C(=O)NC2)c1ccccc1 [Example 210, N-(3-oxo-7-(4-(trifluoromethyl)phenyl)isoindolin-4-yl) benzamide] | > 20000
22 | O=C(Nc1ccc(-c2ccc3ncccc3c2)c2c1C(=O)NC2)c1ccc(F)cc1 [Example 214, 4-Fluoro-N-(3-oxo-7-(quinolin-6-yl)isoindolin-4-yl)benzamide] | > 20000
23 | O=C(Nc1ccc(-c2cccc3ncccc23)c2c1C(=O)NC2)c1ccc(F)cc1 [Example 215, 4-Fluoro-N-(3-oxo-7-(quinolin-5-yl)isoindolin-4-yl)benzamide] | 240
24 | O=C(Nc1ccc(-c2ccnc3ccccc23)c2c1C(=O)NC2)c1ccc(F)cc1 [Example 216, 4-Fluoro-N-(3-oxo-7-(quinolin-4-yl)isoindolin-4-yl)benzamide] | 160
25 | O=C(Nc1ccc(-c2cccc3cc[nH]c23)c2c1C(=O)NC2)c1ccc(F)cc1 [Example 217, N-(7-(1H-indol-7-yl)-3-oxoisoindolin-4-yl)-4-fluorobenzamide] | 2950
26 | O=C(Nc1ccc(-c2cccc3[nH]cnc23)c2c1C(=O)NC2)c1ccc(F)cc1 [Example 218, N-(7-(1H-benzo[d]imidazol-4-yl)-3-oxoisoindolin-4-yl)-4-fluorobenzamide] | 590
27 | O=C(Nc1ccc(Cc2ccccc2)c2c1C(=O)NC2)c1ccc(F)cc1 [Example 219, N-(7-benzyl-3-oxoisoindolin-4-yl)-4-fluorobenzamide] | 13900
28 | COc1cccc(-c2ccc(NC(=O)c3ccco3)c3c2CN(C(=O)c2ccco2)C3=O)c1OC [Example 224, N-(7-(2,3-dimethoxyphenyl)-2-(furan-2-carbonyl)-3-oxoisoindolin-4-yl)furan-2-carboxamide] | 1000
29 | COc1cccc(-c2ccc(NC(=O)c3cccs3)c3c2CN(C(=O)c2cccs2)C3=O)c1OC [Example 225, N-(7-(2,3-dimethoxyphenyl)-3-oxo-2-(thiophene-2-carbonyl)isoindolin-4-yl)thiophene-2-carboxamide] | > 20000
30 | O=C(Nc1ccccc1)Nc1ccc(-c2ccccc2)c2c1C(=O)NC2 [Example 227, 1-(3-Oxo-7-phenylisoindolin-4-yl)-3-phenylurea] | 1200

More lines, now with the values ahead:

Row | IC50 [nM] | Structure (SMILES)
31 | 8100 | CCOc1cccc(-c2ccc(NC(=O)c3ccccc3)c3c2CNC3=O)c1 [Example 177, N-(7-(3-ethoxyphenyl)-3-oxoisoindolin-4-yl)benzamide]
32 | > 20000 | O=C(Nc1ccc(-c2ccc(Cl)cc2)c2c1C(=O)NC2)c1ccccc1 [Example 179, N-(7-(4-chlorophenyl)-3-oxoisoindolin-4-yl)benzamide]
33 | 13700 | O=C(Nc1ccc(-c2cccc(Cl)c2)c2c1C(=O)NC2)c1ccccc1 [Example 180, N-(7-(3-chlorophenyl)-3-oxoisoindolin-4-yl)benzamide]
34 | > 20000 | CCOc1ccc(-c2ccc(NC(=O)c3ccccc3)c3c2CNC3=O)cc1 [Example 181, N-(7-(4-ethoxyphenyl)-3-oxoisoindolin-4-yl)benzamide]
35 | > 20000 | CCCc1ccc(-c2ccc(NC(=O)c3ccccc3)c3c2CNC3=O)cc1 [Example 188, N-(3-oxo-7-(4-propylphenyl)isoindolin-4-yl)benzamide]
36 | 730 | Cc1ccc(C(=O)Nc2ccc(-c3ccccc3)c3c2C(=O)NC3)o1 [Example 192, 5-Methyl-N-(3-oxo-7-phenylisoindolin-4-yl)furan-2-carboxamide]
37 | 15200 | O=C(Nc1ccc(-c2ccccc2)c2c1C(=O)NC2)c1ccccc1Cl [Example 201, 2-Chloro-N-(3-oxo-7-phenylisoindolin-4-yl)benzamide]
38 | > 20000 | COc1cccc(C(=O)Nc2ccc(-c3ccccc3)c3c2C(=O)NC3)c1 [Example 202, 3-Methoxy-N-(3-oxo-7-phenylisoindolin-4-yl)benzamide]
39 | 350 | O=C(Nc1ccc(-c2ccccc2)c2c1C(=O)NC2)c1cccs1 [Example 203, N-(3-oxo-7-phenylisoindolin-4-yl)thiophene-2-carboxamide]
40 | > 20000 | O=C(Nc1ccc(-c2ccc(F)cc2)c2c1C(=O)NC2)c1ccccc1 [Example 205, N-(7-(4-fluorophenyl)-3-oxoisoindolin-4-yl)benzamide]
41 | > 20000 | N#Cc1ccc(C(=O)Nc2ccc(-c3ccccc3)c3c2C(=O)NC3)cc1 [Example 208, 4-Cyano-N-(3-oxo-7-phenylisoindolin-4-yl)benzamide]
42 | 2800 | Cc1ccc(-c2ccc(NC(=O)c3ccccc3)c3c2CNC3=O)cc1 [Example 209, N-(3-oxo-7-(p-tolyl)isoindolin-4-yl)benzamide]
43 | 700 | O=C(Nc1ccc(-c2ccccc2)c2c1C(=O)NC2)c1ccncc1 [Example 211, N-(3-oxo-7-phenylisoindolin-4-yl)isonicotinamide]
44 | 300 | O=C(Nc1ccc(-c2ccccc2)c2c1C(=O)NC2)c1ccco1 [Example 212, N-(3-oxo-7-phenylisoindolin-4-yl)furan-2-carboxamide]
45 | 600 | O=C(Nc1ccc(-c2ccccc2)c2c1C(=O)NC2)c1cccnc1 [Example 213, N-(3-oxo-7-phenylisoindolin-4-yl)nicotinamide]
46 | 2500 | O=C(Nc1ccc(F)cc1)Nc1ccc(-c2ccccc2)c2c1C(=O)NC2 [Example 226, 1-(4-Fluorophenyl)-3-(3-oxo-7-phenylisoindolin-4-yl)urea]
